One block for each compound: values may come before it.
Legend:
human primary monocytes [1] = assay: static adhesion of fMLP-stimulated monocytes to ICAM-1; type: cell-based; parameters: adherent monocytes on ICAM-1: unit not given here
Description: We investigated the functional effect of PTPRG activation on integrin activation and mediated adhesion by chemoattractants in human primary monocytes and PMNs in a static and flow adhesion assays. Briefly, human primary monocytes or polymorphonuclear cells were suspended at 5×10^6/ml in standard adhesion buffer. Adhesion assays were performed on 18-well glass slides coated with 1 mg/ml human fibrinogen or with 1 μg/ml human ICAM-1 in PBS; 20 μl of cell suspension were added to the coated wells and stimulated for 1 min at 37° C. with 5 μl of fMLP, 0.05 μM final concentration. After rapid washing, adherent cells were fixed in ice-cold 1.5% glutaraldehyde in PBS, and still images of adherent cells in 0.2 mm^2 fields were acquired al 20× phase contrast magnification, NA 0.40, with a charge-coupled device camera (ICD-42B; Ikegami) connected to an inverted microscope (IX50; Olympus). Image acquisition and computer-assisted enumeration of adherent cells were performed with ImageJ (National Institute of Health).
We then investigated the functional effect of TAT-ICD on integrin activation and mediated adhesion by chemoattractants. Static adhesion assays were performed as described in Example 2. […] Data are mean number of adherent cells in 5 experiments in triplicate.
To evaluate whether JAK2 mediates chemoattractant-induced adhesion of human monocytes to beta-2 integrin substrates human monocytes were treated control buffer or P1 or with the three JAK inhibitors. Briefly, human monocytes were treated with buffer (CTRL=control), or 40 μM P1 or P1-TKIP peptides, 100 μM AG490 or 200 μM WHI-P154 for 1 hour at 37° C. and stimulated with 50 nM fMLP for 60 sec.; data are mean and standard deviation (SD) of 6 experiments in triplicate.
Human primary monocytes were isolated from buffy coats from healthy donors and pre-incubated for 30 minutes at room temperature with our without 0.075 micromolar PTPX. Standard adhesion assays on ICAM-1 coated glass slides. Cell suspensions were added to the coated wells for 1 minute, stimulated for 1 minute at 37° C. with […] fMLP. Non-adherent cells were washed away and adherent cells were fixed in ice-cold 1.5% glutaraldehyde in PBS and adherent cells were counted using computer assisted automatic quantification. Data are from a representative experiment and are the mean and standard deviation of 24 measurements per condition (Table 35).

JAK2 = target: T1, JAK2 (Homo sapiens, UniProt O60674); assay: phospho-JAK2 Western Blot on monocytes; type: cell-based; conditions: monocytes, Resting 20.2
T1 construct: endogenous in cells; host or cells: human primary monocytes
T1 sequence (O60674 whole entry): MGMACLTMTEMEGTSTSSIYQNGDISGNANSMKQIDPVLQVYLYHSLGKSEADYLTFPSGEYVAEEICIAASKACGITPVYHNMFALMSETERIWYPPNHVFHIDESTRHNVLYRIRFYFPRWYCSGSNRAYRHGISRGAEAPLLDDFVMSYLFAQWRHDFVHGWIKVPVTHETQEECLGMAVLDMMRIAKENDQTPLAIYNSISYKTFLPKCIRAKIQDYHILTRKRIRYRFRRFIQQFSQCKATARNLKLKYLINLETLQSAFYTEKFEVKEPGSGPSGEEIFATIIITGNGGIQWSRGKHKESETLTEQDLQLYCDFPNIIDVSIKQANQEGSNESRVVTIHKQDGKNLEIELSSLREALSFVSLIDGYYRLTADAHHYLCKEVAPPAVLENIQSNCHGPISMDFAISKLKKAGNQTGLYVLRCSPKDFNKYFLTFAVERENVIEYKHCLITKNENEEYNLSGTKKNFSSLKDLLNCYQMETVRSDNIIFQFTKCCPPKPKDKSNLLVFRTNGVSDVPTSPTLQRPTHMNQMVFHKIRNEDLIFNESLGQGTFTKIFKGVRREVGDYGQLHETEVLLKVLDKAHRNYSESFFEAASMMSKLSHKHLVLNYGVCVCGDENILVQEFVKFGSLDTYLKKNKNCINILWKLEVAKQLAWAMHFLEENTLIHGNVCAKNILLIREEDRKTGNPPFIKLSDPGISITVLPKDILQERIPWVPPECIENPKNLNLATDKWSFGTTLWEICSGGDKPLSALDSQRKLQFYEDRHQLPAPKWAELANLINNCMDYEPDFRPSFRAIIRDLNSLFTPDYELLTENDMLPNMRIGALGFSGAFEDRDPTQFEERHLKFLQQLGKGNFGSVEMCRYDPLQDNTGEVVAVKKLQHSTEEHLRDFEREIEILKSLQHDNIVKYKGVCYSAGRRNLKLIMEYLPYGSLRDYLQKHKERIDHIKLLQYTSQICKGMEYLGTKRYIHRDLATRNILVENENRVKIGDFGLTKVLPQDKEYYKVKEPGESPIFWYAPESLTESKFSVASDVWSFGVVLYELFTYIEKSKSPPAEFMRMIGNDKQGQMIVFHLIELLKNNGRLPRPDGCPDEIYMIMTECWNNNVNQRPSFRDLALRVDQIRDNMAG
Source text: (§1) JAK2 regulation by PTPRG as assessed through the high-throughput phospho-proteomics analysis evidenced that PTPRG activation (Example 4, Table 9 and 10) provides a useful example of the exploitation of this analysis system for identification of targets and unexpected indications/uses for known and novel agents that regulate the phoshoproteome. […] Furthermore, the capability of fMLP to trigger JAKs activation has never been observed. The results described in Example 4 unexpectedly implicate JAK2 de-phosphorylation by PTPRG as playing a role in the anti-adhesive role of PTPRG on monocytes. To test this system-generated hypothesis we first set out to define the role of JAK2 in fMLP-triggered rapid adhesion in monocytes. Time course experiments, either performed with ELISA assay or Western Blot. Briefly, purified human monocytes were treated with buffer (resting) or with 50 nM fMLP for the indicated times (Table 12), and the phosphorylation was assessed by p-Jak2 elisa and Western Blot analysis. The JAK2 activation was determined with Elisa Kit JAK2 (pYpY1007/1008) (Invitrogen). Briefly, cells were stimulated with agonist and lysed following manufacturer's protocol; levels of phospho-JAK2 were quantified (absorbance at 450 nm) with a micro-well plate reader (Victor™ X5 Multilabel Plate Reader, Perkin Elmer). For Western blot analysis, cells were lysed in ice-cold 1% Nonidet P-40 buffer, containing phosphatase inhibitors and complete protease inhibitor cocktail (Roche). Total cell lysates were quantified by Bradford assay (Bio-Rad). Equal amounts of total lysates or of isolated membranes (as described in Example 1) were subjected to 10% SDS-PAGE and then blotted. After incubation with anti-PTPRG, anti gp91^Phox, anti phospho-JAK2, anti JAK2 and HRP-linked secondary antibodies (GE Healthcare), immunoreactive bands were visualized by ECL detection (EMD Millipore). Intensities of band signals were quantified by densitometric analysis (Quantity One, Bio-Rad) by using ImageQuant Las4000. Data are mean value of three experiments; the relative ratio of the band intensity of phosphor-JAK2 was normalized to the level of JAK2 band intensities.
To evaluate whether JAK2 mediates fMLP-triggered rapid adhesion in human monocytes, we tested the capability of three JAK inhibitors, AG490, WHI-P154 and P1-TKIP peptide, to block adhesion triggering. Briefly, Monocytes were treated with buffer (resting and Control=CTRL), 100 μM AG490, 40 μM P1 or P1-TKIP peptides, or 200 μM WHI-P154 for 1 hour at 37° C. and stimulated with 50 nM fMLP for 180 sec. Cell lysates were probed with anti phospho-JAK2 and with anti JAK2. Western Blot immuoreactive band quantification; the relative ratio of the band intensity of phospho-JAK2 was normalized to the level of JAK2 band intensities; mean values of three experiments (Table 13).
The impact of TAT-ICD and P1-WD on JAK2 activation by chemoattractants was also evaluated by Western Blot analysis. Briefly, monocytes were treated with buffer (Resting, CTRL), 0.5 uM TAT-ICD, 50 μM TAT peptide, 50 μM P1-WD, P1 or P1-WD scrambled peptides for 1 hour at 37° C. and stimulated with 50 nM fMLP for 180 sec (the resting cells were not stimulated with fMLP). Total lysates were probed with anti phospho-JAK2 or with anti JAK. Western Blot immunoreactive bands were quantified and the relative ratio of the band intensity of phospho-JAK2 was normalized to the level of JAK2 band intensities; data are mean value and standard deviation of three experiments (Table 19).

JAK2 (pYpY1007/1008) = assay: p-JAK2 ELISA on monocytes; type: cell-based, human; conditions: monocytes, Resting 100.0, in % (unit assumed)
Source text: as §1
Briefly, p-JAK2 ELISA assay on human monocytes treated with buffer (CTRL=control), 50 μM P1-WD, P1 or P1-WD scrambled peptides (Table 17), or with buffer (CTRL=control), 0.5 uM TAT-ICD or 50 μM TAT peptide (Table 18) for 1 hour at 37° C. and stimulated with 50 nM fMLP for 90 sec. Shown are percentages of fold increases over the control; mean values of 3 experiments in triplicate.

human primary monocytes [2] = assay: static adhesion of fMLP-stimulated monocytes to ICAM-1; type: cell-based; parameters: unit not given here; conditions: 0.075 micromolar PTPX, 30 minutes; 50 nM fMLP; Control 212.8
PTPRG = assay: in vitro phosphatase activity (pNPP) on membranes from human primary monocytes; type: biochemical; conditions: orthovanadate treatment
Description: We first tested the biochemical activity of the fusion peptide by performing in vitro assays of phosphatase activity on purified membranes isolated from human primary monocytes compared to membranes isolated from human primary polymorphonuclear cells (PMNs). Human primary monocytes and polymorphonuclear (PMNs) cells were isolated from whole blood of healthy donors. Purity of monocyte preparation was evaluated by flow cytometry after staining with fluorescein isothiocyanate (FITC)-conjugated anti-CD14 antibody and was more than 95%. Isolated cells were kept at 37° C. in standard adhesion buffer (PBS, 1 mM CaCl2, 1 mM MgCl2, 10% FBS, pH 7.2) and used within 1 h.
The phosphatase activity in membrane fractions isolated from human monocytes and PMNs was assessed. […] Cells were then sonicated twice (6 sec, 15% W) and centrifuged at 2000 rpm for 10 minutes. The supernatants were collected and centrifuged at 28000 rpm for 60 minutes. After centrifugation, the supernatants were discarded, and the membrane pellets were dissolved in 20 mM tris pH 7.4. Equal amount of membrane fractions were added to pNPP buffer containing 20 mM tris, 10 mM DTT and 2 mM pNPP. Following, DMSO and peptides were added. After 30 minutes of incubation, levels of de-phosphorylation, in presence or absence of orthovanadate, were measured at 405 nm by a plate reader. Values are absorbance at 405 nn shown as percent fold increase over the blank; mean values of three experiments are shown. *p<0.001 vs vehicle (DMSO).

phospho-JAK2 band intensity normalized to JAK2, Western Blot (JAK2; 50 nM fMLP 90″): 37.8
phospho-JAK2 band intensity normalized to JAK2, Western Blot (JAK2; 50 nM fMLP 120″): 46.7
phospho-JAK2 band intensity normalized to JAK2, Western Blot (JAK2; 50 nM fMLP 180″): 58.5
Compound: fMLP
increase in monocyte adhesion to ICAM-1 (human primary monocytes [1]; stimulation with fMLP vs no agonist): approximately 10 fold
phospho-JAK2 level, ELISA (JAK2 (pYpY1007/1008); 50 nM fMLP 90″): 107.3
phospho-JAK2 level, ELISA (JAK2 (pYpY1007/1008); 50 nM fMLP 120″): 128.3
phospho-JAK2 level, ELISA (JAK2 (pYpY1007/1008); 50 nM fMLP 180″): 155.7

Compound: PTPx: external domain of PTPRG, amino acids 20-736, produced with a histidine tag
adherent monocytes on ICAM-1 (human primary monocytes [1]; 0.075 micromolar PTPX, 30 minutes, No Agonist, Control 22.2): 3.4
adherent monocytes on ICAM-1 (human primary monocytes [2]): 32.7

Compound: [Na+].[Na+].[Na+].[O]=[V]([O-])([O-])[O-] [Orthovanadate, Na3VO4, reference compound]
phosphatase activity elicited in membranes (PTPRG): completely prevented phosphatase activity

From patent US10898548B2, “Modulators of protein tyrosine phosphatase and uses thereof” (LEUVAS THERAPEUTICS, priority 2015, dated 2021)
